Laboratory results taken from patent US11396499B2, “Lysosomal acid lipase assay” (University of Washington, priority 2018, dated 2022).
Values joined by “and” are separate entries in the source; they are usually repeats but may differ in a detail not shown here. Equal values may be shown once. Values belong to the compound of their own block, whether it stands above or below them.

Tests used:
[1] = biological target: T1, lysosomal acid lipase (LAL) (Homo sapiens, UniProt P38571); test: LAL assay development: replacement of cardiolipin by phospholipids and of Triton X-100 by detergent; assay type: biochemical; conditions: for change of LAL activity over that measured with cardiolipin: phospholipid tested individually at 0.1 mmol/L as replacement for cardiolipin
T1 construct: from tissue; host or cells: dried blood spots (DBS) from healthy adults, healthy children and LAL-deficient patients
T1 sequence (P38571 77-399): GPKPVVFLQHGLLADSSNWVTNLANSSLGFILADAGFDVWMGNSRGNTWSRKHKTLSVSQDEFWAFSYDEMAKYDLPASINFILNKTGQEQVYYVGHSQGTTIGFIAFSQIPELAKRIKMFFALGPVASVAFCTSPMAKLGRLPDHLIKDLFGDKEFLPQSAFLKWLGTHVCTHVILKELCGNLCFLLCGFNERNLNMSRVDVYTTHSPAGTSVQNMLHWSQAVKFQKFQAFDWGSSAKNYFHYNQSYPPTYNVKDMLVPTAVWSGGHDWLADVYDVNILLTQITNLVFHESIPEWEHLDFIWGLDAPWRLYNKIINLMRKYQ
Protocol: A variety of phospholipids were evaluated as replacements for cardiolipin, which was used in the original LAL assay described by Hamilton et al. (Clin Chim Acta 2012; 413:1207-10). The following phospholipids were tested individually at 0.1 mmol/L: 1,2-dioleoyl-phosphatidylethanolamine, 1,2-dioleoyl-phosphatidylmethanol, 1,2-dioleoyl-phosphatidylcholine, 1,2-dioleoyl-phosphatidylserine, brain phosphatidylethanolamine, 1,2-heptadecyl-phosphatidylcholine, and 1,2-lauryl-phosphatidylcholine.
The original LAL assay described by Hamilton et al. (Clin Chim Acta 2012; 413:1207-10) used Triton X-100 as the detergent, which was replaced this with sodium taurodeoxycholate because this detergent largely remains in the aqueous phase following liquid-liquid extraction with ethyl acetate (thus minimizing injection of large amounts of detergent onto the UPLC column). […] Thus, 2.5 mmol/L was chosen for all subsequent studies.

[2] = tested on: lysosomal acid lipase (LAL); test: UPLC-MS/MS LAL assay in dried blood spots (DBS) with substrate P-PMHC; assay type: biochemical, human
Protocol: Assay mixture was prepared by combining 9 volumes of 0.1 mol/L sodium acetate buffer (made by adding reagent grade NaOH to 0.1 mol/L reagent-grade acetic acid in water), pH 4.5, containing 2.5 mmol/L sodium taurodeoxycholate hydrate (Sigma, 287245) with 1 volume of 0.5% (w/v) bovine heart cardiolipin in ethanol (Sigma, C1649) containing 3 mmol/L substrate palmitoyl 4-propyl-8-methyl-7-hydroxycoumarin (P-PMHC) and 50 μmol/L carbon-13-labeled 4-propyl-8-methyl-7-hydroxycoumarin (internal standard). The latter was prepared by mixing solid substrate P-PMHC with internal standard solution in absolute ethanol, removing solvent in a centrifugal concentrator under vacuum (or with a jet of nitrogen), and then mixing with commercial cardiolipin/ethanol solution. This ethanol stock could be stored at −20° C. for several months (avoid>2-3 freeze-thaw cycles), and the aqueous buffer could be stored at 4° C. for several months. This was based on no change in assay results when new and stored solutions were used. Assay mixture was made fresh before each use.
To a 3-mm punch from a DBS in a 1.5-mL polypropylene Eppendorf tube was added 200 μL of purified water (Milli-Q, EMD Millipore). The tubes were shaken on an orbital platform shaker for 1 h at ambient temperature. The tube of DBS extract was mixed briefly on a vortex-type mixer, and a 10 μL aliquot was added to the well of a polypropylene, deep-well, 96-well plate (Costar, 3959). Assay mixture (30 μL, ambient temperature) was added to each well. The plate was centrifuged at 3000 g for 5 min at ambient temperature to ensure that all liquid was at the well bottom. The plate was sealed with a film cover (Advantage 96-well round clear Silicone/PTFE cap mat 962611). The plate was shaken at 37° C. in an incubator with orbital mixing at 400 rpm for 3 h. The reactions were quenched by addition of 80 μL of purified water (Milli-Q, EMD Millipore) followed by 400 μL of HPLC-grade ethyl acetate. The well contents were mixed by pipetting up and down approximately 10 times. The plate was centrifuged at 3000 g for 5 min at ambient temperature, and then 120 μL of the upper ethyl acetate layer was transferred to a shallow-well, 96-well polypropylene plate (Greigner, 651201). Solvent was removed at ambient temperature with a jet of nitrogen. To each well was added 200 μL of water/methanol (1:1, Fisher Optima Grade), and samples were mixed by pipetting up and down a few times. The plate was wrapped with aluminum foil and placed in the autosampler chamber at 8° C. in preparation for LC-MS/MS analysis.
Liquid chromatography was carried out using a Waters Acquity binary solvent pump system with a CSH, C18, 1.7-μm, 2.1×50-mm column (Waters, 186005296) and a CSH, C18, 1.7-μm guard column (Vanguard, 186005303). The solvent program was 99% A (70:30, water/acetonitrile, 0.1% formic acid, Fisher Optima grade)/1% B (50:50, acetonitrile/isopropanol, 0.1% formic acid) to 30% A/70% B over 1 min, then jump to 100% B and hold for 0.5 min, then to 99% A over 0.5 min (flow rate 0.8 mL/min). The total run time was 2.5 min. Mass spectrometry was carried out with a Waters Xevo TQ tandem-quadrupole instrument.

[3] = biological target: T1, lysosomal acid lipase (LAL); test: Testing the library of palmitoyl-4MU analogs as LAL substrates with DBS, with and without Lalistat-2, UPLC-MS/MS; assay type: biochemical; conditions: for overall ranking in the library (activity and LAL specificity): library of 25 compounds
Protocol: The library of palmitoyl-4MU analogs was tested as LAL substrates as follows. Assay cocktail was a solution of 10:1 buffer to substrate stock, each warmed to 37° C. The substrate stock contained 3.7 mM substrate and 0.5% cardiolipin in ethanol. The buffer contained 0.15 M sodium acetate, pH 4.0, and 2.5 mM sodium taurodeoxycholate. Rehydrated blood mixture (40 mL) was combined with 10 mL of H2O or 30 mM Lalistat-2 in an Eppendorf 1.5 mL polypropylene tube and pre-incubated for 15 min at 37° C. with orbital shaking at 250 rpm. Assay cocktail (100 or 150 mL) was added and samples were incubated for 3 hr at 37° C. with orbital shaking at 250 rpm. Assay was quenched by first flash freezing to −80° C. followed by subsequent addition of 400 mL of ethyl acetate and thawing. Samples were then vortexed and centrifuged at 2700×g for 5 min. Top ethyl acetate layer (200 mL) was transferred to an autosampler plate and blown dry under nitrogen gas then resuspended in 1:1 H2O:methanol solution, and […] per well injected for analysis by UPLC-MS/MS. The LC-MS/MS data was converted into mmole of product by using an external standard of 2.5 nmole (the individual corresponding coumarins) spiked into 40 mL rehydrated blood in a 1.5 mL Eppendorf polypropylene tube incubated separately from the assay cocktail, which were quenched immediately following incubation. Additional controls included a Lalistat-2 inhibited rehydrated DBS solution incubated separately from the assay cocktail then combined and immediately quenched as a blank. Unique duplicate spiked controls and blank controls were used for each coumarin analog.

[4] = biological target: T1, lysosomal acid lipase (LAL); test: Previous fluorometric LAL assay (Hamilton et al.) with palmitoyl-4MU with and without Lalistat-2 in DBS; assay type: biochemical; conditions: same DBS extract, substrate palmitoyl-4MU, 10 μmol/L Lalistat-2
From the text: LAL is detected in leukocytes or fibroblasts using radiometric, immunologic, or fluorescence assays (The metabolic and molecular bases of inherited disease. 8th Ed. New York (NY): McGraw-Hill; 2001. p. 3827-3387). Hamilton and colleagues recently developed a fluorometric assay to detect LAL in dried blood spots (DBS) (Hamilton et al., Clin Chim Acta 2012; 413:1207-10). The assay is based on the release of 4-methylumbelliferone from its ester with palmitic acid. However, the substrate is not specific for LAL, and the method requires two assays performed in parallel, the first in the presence of a LAL-specific covalent inactivator Lalistat-2. LAL activity is calculated from the difference in these 2 assays.
A concentration of P-PMHC in the mixture of 3 mmol/L was settled on based on a combination of high LAL activity and minimal background. The original assay described by Hamilton et al. (Clin Chim Acta 2012; 413:1207-10) used 40 μL of an aqueous extract of a 3-mm DBS added to 160 μL of assay mixture. To keep the solvent volumes for the liquid-liquid extraction to a minimum, thus avoiding long times for solvent removal, 10 μL of an aqueous extract of a 3-mm DBS punch was added to 30 μL of assay mixture.

SMILES: CCCCCCCC/C=C\CCCCCCCC(=O)OC[C@H](COP(=O)([O-])OCC[N+](C)(C)C)OC(=O)CCCCCCC/C=C\CCCCCCCC [1,2-dioleoyl-phosphatidylcholine]
change of LAL activity over that measured with cardiolipin [1]: None of these phospholipids led to any substantial increase in LAL

SMILES: CCCCCCCC/C=C\CCCCCCCC(=O)OC[C@H](COP(=O)(O)OCCN)OC(=O)CCCCCCC/C=C\CCCCCCCC [1,2-dioleoyl-phosphatidylethanolamine]
change of LAL activity over that measured with cardiolipin [1]: None of these phospholipids led to any substantial increase in LAL

SMILES: CCCCCCCC/C=C\CCCCCCCC(=O)OCC(COP(=O)(O)OC)OC(=O)CCCCCCC/C=C\CCCCCCCC (centres unmarked) [1,2-dioleoyl-phosphatidylmethanol]
change of LAL activity over that measured with cardiolipin [1]: None of these phospholipids led to any substantial increase in LAL

SMILES: CCCCCCCC/C=C\CCCCCCCC(=O)OC[C@H](COP(=O)(O)OC[C@H](N)C(=O)O)OC(=O)CCCCCCC/C=C\CCCCCCCC [1,2-dioleoyl-phosphatidylserine]
change of LAL activity over that measured with cardiolipin [1]: None of these phospholipids led to any substantial increase in LAL

SMILES: CCCCCCCCCCCCCCCCC(=O)OC[C@H](COP(=O)([O-])OCC[N+](C)(C)C)OC(=O)CCCCCCCCCCCCCCCC [1,2-heptadecyl-phosphatidylcholine]
change of LAL activity over that measured with cardiolipin [1]: None of these phospholipids led to any substantial increase in LAL

SMILES: CCCCCCCCCCCC(=O)OC[C@H](COP(=O)([O-])OCC[N+](C)(C)C)OC(=O)CCCCCCCCCCC [1,2-lauryl-phosphatidylcholine]
change of LAL activity over that measured with cardiolipin [1]: None of these phospholipids led to any substantial increase in LAL

specific activity ([2]; final assay conditions, 3-mm punch of a DBS from a healthy adult, UPLC-MS/MS): 874 µmol/h/L
specificity of the substrate for LAL in DBS ([2]; from Lalistat-2 inhibition and LAL-deficient patients, listed as P-PMHC): highly specific for LAL in DBS
LAL activity in DBS of LAL-deficient patients ([2]; six LAL-deficient patients, UPLC-MS/MS, no Lalistat-2): close to zero
substrate activity with DBS as the source of LAL compared to palmitoyl-4MU ([3]; 3.7 mM substrate stock, 3 hr 37° C.): more active than palmitoyl-4MU
SMILES: CCCCCCCCCCCCCCCC(=O)Oc1ccc2c(CCC)cc(=O)oc2c1C [Compound 1, 4-propyl-8-methyl-7-palmitoyloxycoumarin]
Activity without Lalistat-2 ([2]; LAL activity toward substrate P-PMHC, tandem mass spectrometry, DBS of Adult 1 (r9) / Adult 2 (r10), triplicate, blank corrected): 519 µmol/h/L and 539 µmol/h/L and 473 µmol/h/L and 554 µmol/h/L and 582 µmol/h/L
overall ranking in the library (activity and LAL specificity) [3]: highest combination of total lipase activity and LAL-specificity
overall ranking in the library (activity and LAL specificity) ([3]; listed as P-PMHC): best combination of high specific activity on LAL and high specificity for LAL

inhibition of the activity toward P-PMHC ([2]; DBS extracts from two healthy persons preincubated with 10 μmol/L Lalistat-2): 98%
inhibition of the activity toward P-PMHC ([2]; DBS extracts preincubated with 100 μmol/L Lalistat-2): 99%
total lipase activity blocked [4]: 78%
SMILES: O=C(Oc1nsnc1N1CCCCC1)N1CCCCC1 [Lalistat-2, reference compound]

decrease of LAL activity on replacement of Triton X-100 ([1]; 2.5 mmol/L sodium taurodeoxycholate): 20%
SMILES: C[C@H](CCC(=O)NCCS(=O)(=O)[O-])[C@H]1CC[C@H]2[C@@H]3CC[C@@H]4C[C@H](O)CC[C@]4(C)[C@H]3C[C@H](O)[C@]12C.[Na+] [sodium taurodeoxycholate]
